According to patent US6664213B1, “Liquid pesticide composition” (Nissan Chemical Industries, Ltd., priority 1999, dated 2003):

What was measured:
[1] = tested on: velvetleaf (Abutilon theophrasti); experiment: Test Example 5: herbicidal effect of Halosulfuron-methyl spray solution with added polyoxyethylene alkyl ethers on velvetleaf; type: in vivo; settings: scale 0 to 100; spray solution of 75% water dispersible granules of Halosulfuron-methyl alone, 0.1 g/a., five-leaf stage, 2 l/a., 27 days after spraying
Protocol: (§1) A biological test was conducted using spray solutions prepared by adding polyoxyethylene alkyl ethers having different HLB values to a herbicide spray solution.
Biological tests were conducted on velvetleaf (Abutilon theophrasti) using spray solutions prepared by adding polyoxyethylene alkyl ethers having different HLB values to a spray solution of 75% water dispersible granules of Halosulfuron-methyl. To confirm a difference in effect between the polyoxyethylene alkyl ethers, the tests were carried out using a lower concentration of Halosulfuron-methyl than usual. A plastic pot having a diameter of 12 cm was filled with soil, and velvetleaf seeds were sowed in the soil. The solutions were sprayed on velvetleaf of five-leaf stage in an amount of 0.1 g per are (g/a.), calculated as pesticidally active ingredient Halosulfuron-methyl. The amount of the solution sprayed was 2 liters per are (l/a.)and 1,000 ppm of a the polyethylene alkyl ethers were added to the solution. Herbicidal effects were observed and evaluated 27 days after spraying.

[2] = tested on: crabgrass(Digitaria ciliaris); experiment: Test Example 6: herbicidal effect of Quizalofop-p-ethyl spray solution with added polyoxyethylene alkyl ethers on crabgrass; type: in vivo; settings: scale 0 to 100; spray solution of 40% suspension concentrates of Quizalofop-p-ethyl alone, 125 mg/a., 3 weeks after sowing, 2.5 l/a., 21 days after spraying
Protocol: as §1
Biological tests were conducted on crabgrass(Digitaria ciliaris) using spray solutions prepared by adding polyoxyethylene alkyl ethers having different HLB values to a spray solution of 40% suspension concentrates of Quizalofop-p-ethyl. A plastic pot having a diameter of 12 cm was filled with soil, and crabgrass seeds were sowed in the soil. The solutions were sprayed on in an amount of 125 mg per are (mg/a.), calculated as pesticidally active ingredient Quizalofop-p-ethyl, 3 weeks after the seeds were sowed. The amount of the solution sprayed was 2.5 liters per are (1/a.) and 125 ppm of the polyoxyethylene alkyl ethers were added to the solution. Herbicidal effects on crabgrass were observed and evaluated 21 days after spraying.

| SMILES | Observation evaluation, herbicidal effect of Halosulfuron-methyl on velvetleaf, polyoxyethylene alkyl ether not added [1] | Observation evaluation, herbicidal effect of Quizalofop-p-ethyl on crabgrass, polyoxyethylene alkyl ether not added [2] |
| --- | --- | --- |
| COC(=O)c1c(Cl)nn(C)c1S(=O)(=O)NC(=O)Nc1nc(OC)cc(OC)n1 [Halosulfuron-methyl] | 40 | – |
| CCOC(=O)[C@@H](C)Oc1ccc(Oc2cnc3cc(Cl)ccc3n2)cc1 [Quizalofop-p-ethyl, ethyl=(R)-2-[4-(6-chloroquinoxalin-2-yloxy)phenoxy]propionate] | – | 25 |
